Measured values as given in US11814376B2, “Hepatitis b core protein modulators” (Assembly Biosciences, Inc., priority 2015, dated 2023).

Legend:
AD38 cells = experiment: Viability of AD38 cells (Promega CellTiter-Glo); type: cell-based; conditions: 10 μM compound, 6 days, CellTiter-Glo luminescence normalized to DMSO control (100%)
Protocol: (§1) Example 2: Assay Measuring Activity of Compounds on Viral Production in and on Viability of AD38 Cells
(§2) AD38 cells were then re-suspended with 10 mL of Treatment Medium and counted. Wells of a collagen coated 96-well NUNC microtiter plate were seeded at 50,000/well in 180 μL of Treatment Medium, and 20 μL of in treatment media with either 10% DMSO (Control) or a 10× solution of compound in 10% DMSO was added. Plates were incubated for 6 days at 37° C.
At the end of compound treatment period cell viability was assessed using a Promega CellTiter-Glo protocol. All supernatant was removed the previously treated 96-well microtiter plate, and 50 μL Tetracycline-free treatment medium (DMEM/F12 (1:1), 1× Pen/step (cat #: 30-002-CL, Mediatech, Inc), with 2% FBS, Tet-system approved (cat #: 631106, Clontech), and 1% DMSO was added back to each well. Another 50 μL of CellTiter-Glo reagent solution (Promega, G7573) was then added at room temperature and the contents mixed for 2 minutes on an orbital shaker to induce cell lysis. This was followed by incubation at room temperature for 10 minutes to stabilize the luminescent signal. The luminescence was recorded for 0.2 seconds per well on a Tecan multimode plate reader (Infinite M1000 pro). The luminescent signal from each well was normalized against that of untreated (DMSO) control wells. All results were reported percent viability (with controls being 100%).

[1] = test system: HBV viral load in AD38 cells; experiment: Viral load production in AD38 cells, quantitative PCR of the core sequence in supernatant; type: cell-based; conditions: Hepatitis B virus, 144 h, 10 μM compound, 6 days at 37° C., supernatant qPCR, relative to DMSO control; read-out: AD38 Viral Load (%) (VL with cmpd/VL in DMSO control) at 10 μM
Protocol: as §1, §2
Viral load production was assayed by quantitative PCR of the core sequence. […] The PCR mixture was incubated at 45° C. for 5 minutes, then 95° C. for 10 min, followed by 40 cycles of 10 seconds at 95° C. and 20 seconds at 60° C. Viral load was quantitated against known standards by using ViiA™ 7 Software. Viral load in the supernatant from wells with treated cells were compared against viral load in supernatant from DMSO control wells (>3 per plate).

SMILES | AD38 Viability Normalized Result (cmpd/DMSO %) at 10 μM (AD38 cells) | activity at 10 µM [1]
Cl.O=C(NCc1cnc(-c2ccc(OC[C@H]3CCNC3)cc2)s1)c1ccc2c(c1)NC(=O)c1ccccc1S2(=O)=O [compound 11139, (S)-11-oxo-N-((2-(4-(pyrrolidin-3-ylmethoxy)phenyl)thiazol-5-yl)methyl)-10, 11-dihydrodibenzo [b, f] [1, 4] thiazepine-8-carboxamide 5,5-dioxide hydrochloride] | 104% | 5.5%
O=C1CCN(c2ncc(CNC(=O)c3ccc4c(c3)NC(=O)c3ccccc3S4(=O)=O)s2)CCN1 [compound 1973] | 100% | 33.7%
N#Cc1ccc(-c2ncc(CNC(=O)c3ccc4c(c3)NC(=O)c3ccccc3S4(=O)=O)s2)cc1Cl [compound 1817] | 97% | 0.3%
O=C(Nc1ncc(Cl)s1)c1ccc2c(c1)NC(=O)c1ccccc1S2(=O)=O [compound 1473] | 79% | 26.5%
O=C(NCc1cnc(N2CCOCC2)s1)c1ccc2c(c1)NC(=O)c1ccccc1O2 [compound 1611] | 100% | 1.4%
O=C(NCc1cnc(-c2ccc(-n3cccn3)cc2)s1)c1ccc2c(c1)NC(=O)c1ccccc1S2(=O)=O [compound 1952, N-((2-(4-(1H-pyrazol-1-yl)phenyl)thiazol-5-yl)methyl)-11-oxo-10, 11-dihydrodibenzo [b, f] [1, 4] thiazepine-8-carboxamide 5,5-dioxide] | 106% | 0.8%
COc1c(C)cc(-c2ncc(CNC(=O)c3ccc4c(c3)NC(=O)c3ccccc3O4)s2)cc1C [1738-A] | 104% | 1.8%
CN(C)c1ncc(CNC(=O)c2ccc3c(c2)NC(=O)c2ccccc2S3)s1 [compound 1425] | 100% | 0.6%
O=C(NCc1cnc(-n2cc(C(F)(F)F)cn2)s1)c1ccc2c(c1)NC(=O)c1ccccc1S2(=O)=O [compound 11039] | 92% | 1.9%
Cc1ncc(CNC(=O)c2ccc3c(c2)NC(=O)c2cc(Cl)ccc2S3)s1 [compound 1541] | 98% | 3.7%
O=C(NCc1cnc(-c2cncs2)s1)c1ccc2c(c1)NC(=O)c1ccccc1S2(=O)=O [compound 1956] | 88% | 2.3%
O=C(NCc1cnc(-c2ccc(OCCCOn3nnc4cccnc43)cc2)s1)c1ccc2c(c1)NC(=O)c1ccccc1S2(=O)=O [11108-B, N-((2-(4-(3-((3H-[1,2,3]triazolo[4,5-b]pyridin-3-yl)oxy)propoxy)phenyl)thiazol-5-yl)methyl)-11-oxo-10,11-dihydrodibenzo[b, f] [1,4]thiazepine-8-carboxamide 5,5-dioxide] | 101% | 0.8%
Nc1ncc(-c2ncc(CNC(=O)c3ccc4c(c3)NC(=O)c3ccccc3O4)s2)cn1 [compound 1710] | 96% | 39.9%
O=C(NCc1cnc(-c2ccc3[nH]ncc3c2)s1)c1ccc2c(c1)NC(=O)c1ccccc1O2 [compound 1737] | 112% | 7.2%
NCCC#Cc1ccc(-c2ncc(CNC(=O)c3ccc4c(c3)NC(=O)c3ccccc3S4(=O)=O)s2)cc1 [compound 11002, N-((2-(4-(4-aminobut-1-yn-1-yl)phenyl)thiazol-5-yl)methyl)-11-oxo-10, 11-dihydrodibenzo [b, f] [1, 4] thiazepine-8-carboxamide 5,5-dioxide] | 90% | 0.9%
CN(C)CCSc1ncc(CNC(=O)c2ccc3c(c2)NC(=O)c2ccccc2O3)s1 [compound 1617] | 101% | 2.2%
Cc1cc2c(cc1C(=O)NCc1cncs1)NC(=O)c1ccccc1S2 [compound 1496] | 57% | 9.6%
CN1c2ccc(C(=O)NCc3cnc(-c4ccc(O)cc4)s3)cc2NC(=O)c2ccccc21 [compound 1732] | 100% | 18.8%

SMILES | AD38 Viability Normalized Result (cmpd/DMSO %) at 10 μM (AD38 cells) | activity at 10 µM [1]
O=C(NCc1cnc(-c2ccc3cnccc3c2)s1)c1ccc2c(c1)NC(=O)c1ccccc1O2 [compound 1832] | 98% | 14.1%
N#Cc1ccc(-c2ncc(CNC(=O)c3ccc4c(c3)NC(=O)c3cccc(F)c3S4(=O)=O)s2)cc1 [compound 1904] | 89% | 0.5%
Cl.NCCCSc1ccc(-c2ncc(CNC(=O)c3ccc4c(c3)NC(=O)c3ccccc3S4(=O)=O)s2)cc1 [compound 11007, N-((2-(4-((3-aminopropyl)thio)phenyl)thiazol-5-yl)methyl)-11-oxo-10, 11-dihydrodibenzo [b, f] [1, 4] thiazepine-8-carboxamide 5,5-dioxide hydrochloride] | 101% | 2%
CN(C)CC1(COc2ccc(-c3ncc(CNC(=O)c4ccc5c(c4)NC(=O)c4ccccc4S5(=O)=O)s3)cc2)CCC1 [compound 11113] | 92% | 4.9%
CCN(CC)CCCOc1ccc(-c2ncc(CNC(=O)c3ccc4c(c3)NC(=O)c3ccccc3O4)s2)cc1.Cl [compound 11162, N-((2-(4-(3-(diethylamino)propoxy)phenyl)thiazol-5-yl)methyl)-11-oxo-10, 11-dihydrodibenzo [b, f] [1, 4] oxazepine-8-carboxamide hydrochloride] | 104% | 8.7%
CCCN1c2ccc(C(=O)NCc3cnc(-c4ccc(C#N)cc4)s3)cc2NC(=O)c2ccccc21 [compound 1917] | 108% | 1.1%
Cc1ncc(CNC(=O)c2ccc3c(c2)NC(=O)c2ccccc2[S+]3[O-])s1 (stereo not shown) [compound 1526] | 94% | 0.8%
O=C(NCc1cnc(-c2ccc(O)cc2)s1)c1ccc2c(c1)NC(=O)c1cc(Cl)ccc1S2 [compound 1760] | 94% | 6.4%
Cl.NCCCCc1ccc(-c2ncc(CNC(=O)c3ccc4c(c3)NC(=O)c3ccccc3S4(=O)=O)s2)cc1 [compound 11004, N-((2-(4-(4-aminobutyl)phenyl)thiazol-5-yl)methyl)-11-oxo-10, 11-dihydrodibenzo [b, f] [1, 4] thiazepine-8-carboxamide 5,5-dioxide hydrochloride salt] | 94% | 5.5%
Cc1c(C(=O)NCc2cnc(-c3ccc(C#N)cc3)s2)cc(Br)c2c1NC(=O)c1ccccc1S2 [compound 1915] | 100% | 15.7%
C=CCN1c2ccc(C(=O)NCc3cnc(-c4ccc(C#N)cc4)s3)cc2NC(=O)c2ccccc21 [compound 1921] | 101% | 1.2%
CNC(=O)c1ccc(-c2ncc(CNC(=O)c3ccc4c(c3)NC(=O)c3ccccc3S4(=O)=O)s2)cc1 [compound 1943] | 98% | 1.9%
O=C(O)CNc1ncc(CNC(=O)c2ccc3c(c2)NC(=O)c2ccccc2S3(=O)=O)s1 [compound 1583, (5-((5,5-dioxido-11-oxo-10, 11-dihydrodibenzo [b, f] [1, 4]thiazepine-8-carboxamido)methyl)thiazol-2-yl) glycine] | 0% | 1%
O=C(O)CSc1ncc(CNC(=O)c2ccc3c(c2)NC(=O)c2ccccc2S3(=O)=O)s1 [compound 1589, 2-((5-((5,5-dioxido-11-oxo-10, 11-dihydrodibenzo [b, f] [1, 4]thiazepine-8-carboxamido)methyl)thiazol-2-yl)thio) acetic acid] | 98% | 80%
Cc1c(C(=O)NCc2cnc(-c3ccc(OCCCN(C)C)cc3)s2)ccc2c1NC(=O)c1ccccc1S2(=O)=O [C38-01] | 99% | 1.3%
N#Cc1ccc(-c2ncc(CNC(=O)c3ccc4c(c3)NC(=O)c3ccccc3S4(=O)=O)s2)c(F)c1 [compound 1814] | 92% | 0.9%
Cc1c(C(=O)NCc2cnc(-c3cc[nH]n3)s2)ccc2c1NC(=O)c1ccccc1S2(=O)=O [compound 11152] | 96% | 1.6%
